Reference: patent publication US20240197728A1, “METHODS AND PHARMACEUTICAL COMPOSITIONS FOR TREATING REFRACTORY EPILEPSY” (INSERM (INSTITUT NATIONAL DE LA SANTÉ ET DE LA RECHERCHE …, priority 2021, published 2024)

Assays:
[1] = test system: spontaneous interictal-like discharges (IIDs) in slices from mTLE patients; experiment: Multielectrode array recording of postoperative hippocampal-subicular slices from mTLE patients; format: cell-based, human; conditions: for effect on proportion of slices displaying IIDs: p<0.05
Protocol: (§1) For all experiments on hippocampal cultures, neurons were pre-incubated for 2 hours with either DMSO, PCPZ or CLP257 in a CO2 incubator set at 37° C. Drugs were added directly to the culture medium. For electrophysiology experiments, neurons were also recorded in presence of these drugs in the bath. For biochemistry experiments on rat hippocampo-cortical slices, slices were incubated with either DMSO (vehicle), CLP257, PCPZ, WNK463 or sodium orthovanadate for 2 hours in interface chambers set at 37° C. For human tissue experiments, slices were pre-incubated with either DMSO, CLP257 or PCPZ for 2 hours in interface chambers set at 37° C. and then also recorded in presence of these compounds.
Patients or their legal guardians gave informed consent to participate in the study. Patients ([…], 3 males, 4 female, age range: 16-54 years) diagnosed with mesial temporal lobe epilepsy with hippocampal sclerosis underwent multimodal preoperative neurological, neurophyschological and psychiatric evaluations as well as video-electroencephalographic recording, magnetic resonance imaging and fluorodeooxyglugose positron emission tomography. Cortectomies were performed at Sainte-Anne Hospital by neurosurgeons B. Devaux and B. Turak and at Pitié-Salpêtriére Hospital by neurosurgeons S. Clemenceau and B. Mathon. Cortical specimens collected in the operating room were immediately transported in ice-cold (0-4° C.), oxygenated solution (O2/CO2 95/5%), containing (in mM): N-methyl-d-glucamine 93, KCl 2.5, NaH2PO4 1.2, NaHCO3 30, HEPES 20, D-glucose 20, ascorbic acid 5, sodium pyruvate 3, MgSO4 10 and CaCl2 0.5 (300-310 mOsm, pH7.4) and transported within 15 minutes to the laboratory. Transverse hippocampal-subicular slices (400 m thick) were prepared in the same solution using a vibratome (HM650V, Microm). They were maintained for 20-30 minutes at 37° C. and then at room temperature in an interface chamber containing artificial cerebrospinal fluid (ACSF) composed of (in mM): D-glucose 10, KCl 3.5, NaHOC3 26, NaH2PO4 1.25, NaCl 126, CaCl2 1.6 and MgCl2 1.2 (290 mOsm), equilibrated with 5% CO2 in 95% 02.
Multielectrode array recordings were performed using a MEA2100 station (Multi Channel Systems) equipped with a 120-microelectrode array chamber (custom 12×10 layout, 30 μm TiN electrodes spaced 1 mm vertical and 1.5 mm horizontal). Slices were maintained in the recording chamber using a home-made platinum-nylon harp and superfused with pre-warmed (37° C.) oxygenated ACSF at a rate of 6 ml/min. Slices were imaged using a video-microscope table (MEA-VMT1, Multi Channel Systems) in order to register the location of electrodes with respect to the slice. Extracellular signals were acquired at a sampling rate of 10 kHz using Multi Channel Experimenter (Multi Channel Systems) and analyzed offline using homemade software (Matlab, The Mathworks).

KCC2 = experiment: Surface biotinylation and immunoblot of KCC2 in hippocampal cultures; format: cell-based, rat; conditions: for effect on total KCC2 expression: hippocampal cultures
Protocol: Primary cultures of hippocampal neurons were prepared as previously described. Briefly, hippocampi were dissected from embryonic day 18-19 Sprague-Dawley rats of either sex. Tissue was then trypsinized (0.25% v/v), and mechanically dissociated in 1×HBSS (Invitrogen) containing 10 mM HEPES. Neurons were plated at a density of 120×10^3 cells/ml onto 18-mm diameter glass coverslips (Assistent) pre-coated with 50 μg/ml poly-D,L-ornithine (Sigma-Aldrich) in plating medium composed of Minimum Essential Medium (MEM, Sigma-Aldrich) supplemented with horse serum (10% v/v, Invitrogen), L-glutamine (2 mM) and Na+ pyruvate (1 mM) (Invitrogen). After attachment for 3-4 h, cells were incubated in culture medium composed of Neurobasal medium supplemented with B27 (1×), L-glutamine (2 mM), and antibiotics (penicillin 200 units/ml, streptomycin, 200 μg/ml; Invitrogen) for up to 4 weeks at 37° C. in a 5% CO2 humidified incubator. Each week, one fifth of the culture medium volume was renewed.
as §1
Neurons were washed with ice-cold PBS three times, and then incubated with PBS supplemented with 0.5-1 mg/ml EZ-Link Sulfo-NHS-SS-Biotin (Pierce, Rockford, IL, USA) at 4° C. for 30 min under gentle agitation. Biotinylation was stopped by addition of Tris-HCl (50 mM; pH 7.4) and cells lysed in a modified RIPA buffer containing (in mM): Tris-HCl 50 (pH 7.4), NaCl 150, 1% Nonidet P-40, 0.5% DOC, 0.1% SDS, NaF 50, Na3VO4 1 and protease and phosphatase inhibitors (Roche). Lysates were then collected by gently scraping the bottom of each well. After complete homogenization, samples were centrifuged and the supernatant was collected. A small fraction of the lysates was kept for input KCC2 and total protein quantification using BCA kit (Thermo Scientific). Lysates were mixed with a 50% slurry of Neutravidin beads (Thermo Scientific) and rotated overnight at 4° C. […]
Samples were subjected to electrophoresis on polyacrylamide gradient gels (4-12%) and transferred to nitrocellulose membranes. […] Fluorescence was detected using Odyssey infrared imaging system (LI-COR Bioscience). […]

[2] = 100 μM CLP257, 2 h, slices from 5 out of 6 patients
[3] = 100 μM CLP257, 2 h, slices from the remaining patient

SMILES	patients whose slices showed reduced IID frequency ([1]; 100 μM CLP257, 2 h)	change of IID amplitude [1, 2]	reduction of IID frequency [1, 2] [%]	change of IID amplitude [1, 3] [%]	change of IID frequency [1, 3]	effect on proportion of slices displaying IIDs ([1]; 100 μM CLP257, 2 h incubation vs DMSO)	effect on total KCC2 expression (KCC2; 100 μM CLP257, 2 h, p=0.893)	effect on ratio of surface to total KCC2 expression (KCC2; 100 μM CLP257, 2 h, p=0.8)	mTLE patients whose slices showed suppressed IIDs ([1]; 10 μM PCPZ, 2 h)	change of IID amplitude ([1]; 10 μM PCPZ, 2 h, group I (5 mTLE patients))	reduction of IID frequency ([1]; 10 μM PCPZ, 2 h, group I (5 mTLE patients, responders)) [%]	change of IID amplitude ([1]; 10 μM PCPZ, 2 h, group II (2 patients))	change of IID frequency ([1]; 10 μM PCPZ, 2 h, group II (2 patients, non-responders))	effect on proportion of slices displaying IIDs ([1]; 10 μM PCPZ, 2 h incubation vs DMSO)	effect on total KCC2 expression (KCC2; 10 μM PCPZ, 2 h, p=0.137)	effect on ratio of surface to total KCC2 expression (KCC2; 10 μM PCPZ, 2 h, p=0.735)
O=C1N=C(N2CCCCN2)S/C1=C\c1ccc(F)cc1O [CLP257, (5Z)-5-[(4-Fluoro-2-hydroxyphenyl)methylene]-2-(tetrahydro-1-(2H)-pyridazinyl)-4(5H)-thiazolone]	5 out of 6	+134.4%	96.5±2.31	−24.5	+12.6%	significantly reduced	no effect	no effect								
CN1CCN(CCCN2c3ccccc3Sc3ccc(Cl)cc32)CC1 [PCPZ, prochlorperazine]									5 out of 7	+9.0%	97.55±13.8	+18.2±4.8%	+25.5±15.9%	significantly reduced	no effect	no effect
